# Source: patent publication US9771560B2, “High-throughput image-based chemical screening in zebrafish blastomere cell culture” (CHILDREN'S MEDICAL CENTER CORPORATION, priority 2012, dated 2017)
# Where “and” joins values, the source holds several entries; their conditions need not be identical. Equal values may be shown once.
# Tests used:
# cultured satellite cells = assay: Flow cytometry of CXCR4 and β-1 Integrin on cultured satellite cells; format: cell-based, mouse; settings: after 5 days in culture, FACS
# Description: FIG. 5C, GFP^+ satellite cells were harvested from β-actin GFP mice and were transplanted into TA muscle of recipient mdx mice, injured 1 day previously by injection of cardiotoxin, either right after isolation or after five days in culture with DMSO or forskolin treatment. […] Scale bars represent 200 μm.
# Flow cytometry analysis was performed using a BD LSR II, provided through the Harvard Stem Cell Institute Flow Cytometry Core Facility. Flow cytometry data were collected using DIVA (Becton Dickinson (BD), Franklin Lakes, N.J.) software and analyzed offline using Flowjo software (Tree Star, Inc., Macintosh version 8.1.1, Ashland, Oreg.). Antibodies used for flow cytometry included: APC/Cy7 anti-mouse Ter119, clone Ter119 (1:200, Biolegend 116223), APC/Cy7 anti-mouse CD45, clone 30-F11 (1:200, Biolegend 103116), APC/Cy7 anti-mouse CD11b, clone M1/70 (1:200, Biolegend 101226), APC Anti-mouse Ly-6A/E (Sca-1), clone D7 (1:200, Biolegend 108112), Biotin anti-mouse CD184 (CXCR4, Fusin) (1:100, BD Biosciences 551968), Streptavidin PE-Cy7 (1:100, eBioscience 25-4317-82), PE anti-mouse/rat CD29 Antibody (1:100, Biolegend 102208). Live cells were identified by positive staining with calcein blue (1:1000) (Invitrogen, Carlsbad, Calif.) and negative staining for propidium iodide (PI, 1 μg/mL). […]
# [1] = tested on: satellite cells from C57BL/6J mice; assay: In vitro expansion of mouse satellite cells (cell count); format: cell-based; settings: 5 days in culture
# Description: (§1) SMP isolation was performed as previously described (Cerletti et al., 2008; Sherwood et al., 2004). Briefly, MFA cells were prepared from intact skeletal muscles (EDL, gastrocnemius, quadriceps, soleus, TA, triceps brachii, abdominal) by digesting the muscles with collagenase type II and then dispase enzymes. MFA cells were stained for isolation of CD45^−Sca-1^−Mac-1^−CXCR4^+ b1-integrin^+ cell population by FACS. For in vitro expansion experiments, SMPs were seeded on collagen/laminin-coated plates in F10 (Gibco) containing 20% horse serum (Atlanta Biologics), 1% penicillin-streptomycin (Invitrogen) and 1% glutamax (Invitrogen). […] Cells were counted or used for transplantation after 5 days in culture. For Myogenic colony formation assay cells were fixed and counted after 6 days in culture. […]
# (§2) Cultured SMPs were fixed in 4% paraformaldehyde (PFA) and stained with 10 μg/ml Hoechst (Invitrogen). […] The images were analyzed and numbers of cells were counted by the built-in software. […] The images were analyzed and percentage of nuclei in myotubes was calculated using a modified ImageJ macro developed in-house. […]
# (§3) We hypothesized that the chemical hits enhancing skeletal muscle development in zebrafish blastomeres may likewise promote muscle precursor cell formation and/or expansion in other species. […] Cell number in the resulting colonies was determined after 5 days in culture.
# [2] = tested on: satellite cells from mdx mice; assay: In vitro expansion of mdx satellite cells (cell count); format: cell-based, mouse; settings: 5 days in culture
# Description: as §1, §2, §3
# [3] = tested on: cAMP levels in mouse satellite cell cultures; assay: cAMP-Glo assay in cultured satellite cells; format: cell-based
# Description: cAMP assay was performed using the cAMP-Glo™ Assay kit (Promega) according to the manufacturer's protocol.
# To test forskolin's effect on satellite cell survival and proliferation, single cells were plated at one cell per well in 96-well plates and treated with forskolin or DMSO. After six days in vitro culture, we quantified the number of wells containing any number of myogenic cells (a measure of cell survival) and the number of cells in those wells (a measure of cell proliferation) (FIG. 3D).
structure (smiles),measurement,setting,value
C=C[C@@]1(C)CC(=O)[C@]2(O)[C@@]3(C)[C@@H](O)CCC(C)(C)[C@@H]3[C@H](O)[C@H](OC(C)=O)[C@@]2(C)O1 [forskolin],frequency of cells co-expressing CXCR4 and β-1 Integrin,cultured satellite cells,78.9%+/−1.52% and ~80%
same,"total number of cells, fold change compared to DMSO treated cells",[1]; absence of bFGF,~2 folds
same,"total number of cells, fold change compared to DMSO treated cells",[1]; presence of bFGF,~2.3 folds
same,fold change of number of satellite cells compared to DMSO,[2],~3.6 folds
same,"concentration of cAMP, fold increase compared to DMSO treated cells",[3]; 25 μM forskolin,~4.5 fold
same,"concentration of cAMP, fold increase compared to DMSO treated cells",[3]; 50 μM forskolin,~5.2 fold
same,"concentration of cAMP, fold increase compared to DMSO treated cells",[3]; 100 μM forskolin,~5.7 fold
